The source of these data is patent US7517874B2 (priority 2007, dated 2009).

Molecules are shown by their SMILES. Where two headings read alike, the source gives them in different places. A value given as a limit tells only on which side of the number the result lay.

One test deals with T1, rat CB2 receptor (rCB2) (Rattus norvegicus, UniProt Q9QZN9).
T1 sequence (Q9QZN9 1-360): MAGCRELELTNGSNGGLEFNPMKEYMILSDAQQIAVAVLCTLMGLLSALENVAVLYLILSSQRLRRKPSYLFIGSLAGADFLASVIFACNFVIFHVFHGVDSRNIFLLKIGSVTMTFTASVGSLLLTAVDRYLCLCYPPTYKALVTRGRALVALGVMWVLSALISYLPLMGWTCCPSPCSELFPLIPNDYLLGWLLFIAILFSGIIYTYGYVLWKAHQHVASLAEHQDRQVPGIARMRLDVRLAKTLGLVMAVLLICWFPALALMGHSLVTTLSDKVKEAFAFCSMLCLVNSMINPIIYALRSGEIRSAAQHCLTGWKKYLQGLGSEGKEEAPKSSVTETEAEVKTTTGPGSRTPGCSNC
As to the kind of experiment: cell-based. It counts as cell-based. The conditions noted are these: for +/− RCB2: agonist or inverse agonist at rCB2. An outline of the steps: (§1)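 First, cells in IBMX-containing HEPES-buffered HBSS are raised to elevated cAMP with 2-8 μM NKH-477 for 30 min. Data are normalised to the forskolin and forskolin + 1 μM CP55,940 controls.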

The target of test [1] is human CB1 receptor (hCB1) (Homo sapiens, UniProt P21554). Briefly: cell-based. The format is cell-based. The conditions noted are these: for +/− HCB1: agonist or inverse agonist at hCB1. The procedure, abridged:
as §1

[2] abbreviates: groups >100 nM-10 μM and >10 μM, cAMP, CHO-K1 rCB2, read-out: EC50 RCB2.
The mark [3] stands for this setting: groups >100 nM-10 μM and >10 μM, cAMP, CHO-K1 hCB1, read-out: EC50 HCB1.

Chain of human CB1 receptor (hCB1) (P21554 whole entry): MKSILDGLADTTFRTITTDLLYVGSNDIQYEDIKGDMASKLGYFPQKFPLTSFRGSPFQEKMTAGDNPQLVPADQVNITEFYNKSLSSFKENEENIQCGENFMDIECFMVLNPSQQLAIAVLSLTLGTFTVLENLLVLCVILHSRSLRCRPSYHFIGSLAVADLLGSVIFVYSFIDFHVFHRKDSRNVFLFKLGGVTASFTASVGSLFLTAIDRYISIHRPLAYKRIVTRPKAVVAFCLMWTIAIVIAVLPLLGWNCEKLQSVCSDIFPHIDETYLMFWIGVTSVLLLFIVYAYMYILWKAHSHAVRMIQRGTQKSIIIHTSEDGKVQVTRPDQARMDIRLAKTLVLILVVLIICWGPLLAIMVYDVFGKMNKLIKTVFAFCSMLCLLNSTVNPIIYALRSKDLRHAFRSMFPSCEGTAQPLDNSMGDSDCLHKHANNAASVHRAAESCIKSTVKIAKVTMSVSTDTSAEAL

For `CNC(=O)[C@@H](NC(=O)c1nc(-c2ccc(OC(F)(F)F)cc2)n2c1CN(C)CCC2)C(C)(C)C` [Compound 339, (S)-N-(3,3-dimethyl-1-(methylamino)-1-oxobutan-2-yl)-8-methyl-3-(4-(trifluoromethoxy)phenyl)-6,7,8,9-tetrahydro-5H-imidazo[1,5-a][1,4]diazepine-1-carboxamide], the “+/− RCB2” value at rat CB2 receptor (rCB2) is “−”. Further, the concentration for a half-maximal effect (EC50) in test [1] was above 10000 nM.
On to `O=C(NCC1CCOCC1)c1nc(-c2ccccc2)n2c1CN(C(=O)C1CCOC1)CC2` (stereo not shown) [Compound 135, 3-phenl-N-((tetrahydro-2H-pyran-4-yl)methyl)-7-(tetrahydrofuran-3-carbonyl)-5,6,7,8-tetrahydroimidazo[1,5-a]pyrazine-1-carboxamide], for which the EC50 (on rat CB2 receptor (rCB2) (setting [2]); in test [1] (setting [3])) was above 10000 nM in each case.
Turning to `CNC(=O)[C@@H](NC(=O)c1nc(-c2ccc(Cl)cc2F)n2c1CN(C)CC2)C(C)(C)C` [Compound 241, (S)-3-(4-chloro-2-fluorophenyl)-N-(3,3-dimethyl-1-(methylamino)-1-oxobutan-2-yl)-7-methyl-5,6,7,8-tetrahydroimidazo[1,5-a]pyrazine-1-carboxamide], the “+/− RCB2” value at rat CB2 receptor (rCB2) is listed as “−”. The molecule also had an EC50 in test [1] above 10000 nM.
For `CNC(=O)[C@@H](NC(=O)c1nc(-c2cccnc2)n2c1CN(C)CCC2)C(C)(C)C` [Compound 348, (S)-N-(3,3-dimethyl-1-(methylamino)-1-oxobutan-2-yl)-8-methyl-3-(pyridin-3-yl)-6,7,8,9-tetrahydro-5H-imidazo[1,5-a][1,4]diazepine-1-carboxamide], the “+/− RCB2” value at rat CB2 receptor (rCB2) was “+”. In test [1], this molecule gave an EC50 above 10000 nM.
In the case of `CNC(=O)[C@@H](NC(=O)c1nc(C2CCCC2)n2c1CN(C)CC2)C(C)(C)C` [Compound 303, (S)-3-cyclopentyl-N-(3,3-dimethyl-1-(methylamino)-1-oxobutan-2-yl)-7-methyl-5,6,7,8-tetrahydroimidazo [1,5-a]pyrazine-1-carboxamide], the “+/− RCB2” value on rat CB2 receptor (rCB2) is “+”. For the same molecule, the EC50 in test [1] was above 10000 nM.
`CC(C)(C)[C@@H](CO)NC(=O)c1nc(-c2ccc(Cl)cc2)n2c1CN(CCO)CC2` [Compound 162, (S)-3-(4-chlorophenyl)-N-(1-hydroxy-3,3-dimethylbutan-2-yl)-7-(2-hydroxyethyl)-5,6,7,8-tetrahydroimidazo[1,5-a]pyrazine-1-carboxamide]: the “+/− RCB2” value on rat CB2 receptor (rCB2) was “−”. In addition, the EC50 in test [1] was above 10000 nM.
As to `CNC(=O)[C@@H](NC(=O)c1nc(-c2cc(F)ccc2F)n2c1CN(C)CCC2)C(C)(C)C` [Compound 359, (S)-3-(2,5-difluorophenyl)-N-(3,3-dimethyl-1-(methylamino)-1-oxobutan-2-yl)-8-methyl-6,7,8,9-tetrahydro-5H-imidazo[1,5-a][1,4]diazepine-1-carboxamide], on rat CB2 receptor (rCB2), the “+/− RCB2” value was “+”. The same molecule yielded an EC50 in test [1] above 10000 nM.
Regarding `CNC(=O)[C@@H](NC(=O)c1nc(-c2ccc(C(C)(C)C)cc2)n2c1CN(C)CCC2)C(C)(C)C` [Compound 414, (S)-3-(4-tert-butylphenyl)-N-(3,3-dimethyl-1-(methylamino)-1-oxobutan-2-yl)-8-methyl-6,7,8,9-tetrahydro-5H-imidazo[1,5-a][1,4]diazepine-1-carboxamide], the “+/− RCB2” value at rat CB2 receptor (rCB2) is “−”. Further, the EC50 in test [1] was above 10000 nM.
Take `CNC(=O)[C@@H](NC(=O)c1nc(-c2ccccc2)n2c1CN(C)CCC2)c1ccccc1` [Compound 543, (S)-8-methyl-N-(2-(methylamino)-2-oxo-1-phenylethyl)-3-phenyl-6,7,8,9-tetrahydro-5H-imidazo[1,5-a][1,4]diazepine-1-carboxamide]: the “+/− RCB2” value at rat CB2 receptor (rCB2) is given as “+”. This molecule also showed an EC50 in test [1] above 10000 nM.
For `CN1CCn2c(-c3ccccc3)nc(C(=O)N[C@@H](CO)C(C)(C)C)c2C1` [Compound 67, (R)-N-(1-hydroxy-3,3-dimethylbutan-2-yl)-7-methyl-3-phenyl-5,6,7,8-tetrahydroimidazo[1,5-a]pyrazine-1-carboxamide], the EC50 (on rat CB2 receptor (rCB2); in test [1]) was above 10000 nM throughout.
Take `CCCc1nc(C(=O)N[C@H](C(=O)NC)C(C)(C)C)c2n1CCCN(C)C2` [Compound 485, (S)-N-(3,3-dimethyl-1-(methylamino)-1-oxobutan-2-yl)-8-methyl-3-propyl-6,7,8,9-tetrahydro-5H-imidazo[1,5-a][1,4]diazepine-1-carboxamide]: the “+/− RCB2” value on rat CB2 receptor (rCB2) is on record as “+”. In addition, in test [1], the EC50 was above 10000 nM.
Turning to `Cc1noc([C@@H](NC(=O)c2nc(-c3ccccc3)n3c2CN(C(=O)OC(C)(C)C)CCC3)C(C)(C)C)n1` [Compound 517, (S)-tert-butyl 1-(2,2-dimethyl-1-(3-methyl-1,2,4-oxadiazol-5-yl)propylcarbamoyl)-3-phenyl-6,7-dihydro-5H-imidazo[1,5-a][1,4]diazepine-8(9H)-carboxylate], the “+/− RCB2” value on rat CB2 receptor (rCB2) is on record as “−”. Moreover, in test [1] (setting [3]), the EC50 was above 10000 nM.
Taken in the same sequence, the figures for `CC(C)(C)OC(=O)N1CCn2c(-c3ccccc3)nc(C(=O)NN3CCCCC3)c2C1` [Compound 35, tert-butyl 3-phenyl-1-(piperidin-1-ylcarbamoyl)-5,6-dihydroimidazo[1,5-a]pyrazine-7(8H)-carboxylate] were “−” and above 10000 nM.
In the case of `CNC(=O)[C@@H](NC(=O)c1nc(-c2ccc(NS(C)(=O)=O)cc2)n2c1CN(C)CCC2)C(C)(C)C` [Compound 420, (S)-N-(3,3-dimethyl-1-(methylamino)-1-oxobutan-2-yl)-8-methyl-3-(4-(methylsulfonamido)phenyl)-6,7,8,9-tetrahydro-5H-imidazo[1,5-a][1,4]diazepine-1-carboxamide], the “+/− RCB2” value at rat CB2 receptor (rCB2) is given as “−”. The molecule further registered an EC50 in test [1] above 10000 nM.
Taken in the same sequence, the figures for `CNC(=O)[C@@H](NC(=O)c1nc(-c2ccccc2Cl)n2c1CN(C)CC2)C(C)(C)C` [Compound 253, (S)-3-(2-chlorophenyl)-N-(3,3-dimethyl-1-(methylamino)-1-oxobutan-2-yl)-7-methyl-5,6,7,8-tetrahydroimidazo[1,5-a]pyrazine-1-carboxamide] were “+” and above 10000 nM.
Consider `CNC(=O)[C@@H](NC(=O)c1nc(-c2cc(Cl)c(C)cc2F)n2c1CN(C)CCC2)C(C)(C)C` [Compound 357, (S)-3-(5-chloro-2-fluoro-4-methylphenyl)-N-(3,3-dimethyl-1-(methylamino)-1-oxobutan-2-yl)-8-methyl-6,7,8,9-tetrahydro-5H-imidazo[1,5-a][1,4]diazepine-1-carboxamide], for which the EC50 (on rat CB2 receptor (rCB2); in test [1]) was above 10000 nM each time.
Consider `CC(C)(C)OC(=O)N1CCn2c(-c3ccccc3)nc(C(=O)NC3C4(C)CCC(C4)C3(C)C)c2C1` (stereo not shown) [Compound 30, tert-butyl 3-phenyl-1-(1,3,3-trimethylbicyclo[2.2.1]heptan-2-ylcarbamoyl)-5,6-dihydroimidazo[1,5-a]pyrazine-7(8H)-carboxylate], for which, at rat CB2 receptor (rCB2), the “+/− RCB2” value is “−”. In addition, in test [1], the EC50 is above 10000 nM.
Turning to `CNC(=O)[C@@H](NC(=O)c1nc(-c2ccc(C(=O)N3CCN(C)CC3)cc2)n2c1CN(C)CCC2)C(C)(C)C` [Compound 392, (S)-N-(3,3-dimethyl-1-(methylamino)-1-oxobutan-2-yl)-8-methyl-3-(4-(4-methylpiperazin-1-carbonyl)phenyl)-6,7,8,9-tetrahydro-5H-imidazo[1,5-a][1,4]diazepine-1-carboxamide], the EC50 (at rat CB2 receptor (rCB2) (setting [2]); in test [1] (setting [3])) was above 10000 nM each time.
Turning to `CNC(=O)[C@H](CC(C)C)NC(=O)c1nc(-c2cccc(F)c2)n2c1CN(C)CCC2` [Compound 531, (S)-3-(3-fluorophenyl)-8-methyl-N-(4-methyl-1-(methylamino)-1-oxopentan-2-yl)-6,7,8,9-tetrahydro-5H-imidazo[1,5-a][1,4]diazepine-1-carboxamide], on rat CB2 receptor (rCB2), the “+/− RCB2” value is listed as “+”. Also, the EC50 in test [1] is above 10000 nM.
As to `CNC(=O)[C@@H](NC(=O)c1nc(-c2cccc(C#N)c2)n2c1CN(C)CC2)C(C)(C)C` [Compound 260, (S)-3-(3-cyanophenyl)-N-(3,3-dimethyl-1-(methylamino)-1-oxobutan-2-yl)-7-methyl-5,6,7,8-tetrahydroimidazo[1,5-a]pyrazine-1-carboxamide], the “+/− RCB2” value at rat CB2 receptor (rCB2) is given as “−”. The EC50 in test [1] is above 10000 nM.
`CN1CCCn2c(-c3cc(Cl)ccc3F)nc(C(=O)N[C@H](C(=O)N(C)C)C(C)(C)C)c2C1` [Compound 559, (S)-3-(5-chloro-2-fluorophenyl)-N-(1-(dimethylamino)-3,3-dimethyl-1-oxobutan-2-yl)-8-methyl-6,7,8,9-tetrahydro-5H-imidazo[1,5-a][1,4]diazepine-1-carboxamide]: the EC50 on rat CB2 receptor (rCB2) is above 10000 nM. For the same molecule, the “+/− HCB1” value in test [1] is “+”.
In the case of `CN1CCn2c(-c3ccccc3)nc(C(=O)NC3(CO)CCCC3)c2C1` [Compound 235, N-(1-(hydroxymethyl)cyclopentyl)-7-methyl-3-phenyl-5,6,7,8-tetrahydroimidazo[1,5-a]pyrazine-1-carboxamide], the EC50 (on rat CB2 receptor (rCB2); in test [1]) was above 10000 nM throughout.
For `CNC(=O)[C@@H](NC(=O)c1nc(-c2ccccc2)n2c1CN(c1ncccn1)CCC2)C(C)(C)C` [Compound 483, (S)-N-(3,3-dimethyl-1-(methylamino)-1-oxobutan-2-yl)-3-phenyl-8-(pyrimidin-2-yl)-6,7,8,9-tetrahydro-5H-imidazo[1,5-a][1,4]diazepine-1-carboxamide], the “+/− RCB2” value at rat CB2 receptor (rCB2) is reported as “−”. Also, the “+/− HCB1” value in test [1] is recorded as “+”.
